Here are results for one substance from patent publication US7314620B2, “Methods for diagnosis and treatment of PH domain signal transduction disorders” (New York University, priority 1995, dated 2008).

Assay [1] deals with T1, N-terminal pleckstrin PH domain (Homo sapiens, UniProt P08567).
T1 sequence (P08567 4-101 limits assumed): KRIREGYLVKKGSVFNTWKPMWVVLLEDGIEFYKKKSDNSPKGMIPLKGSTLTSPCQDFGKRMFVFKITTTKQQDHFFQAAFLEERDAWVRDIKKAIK
To be noted: PIP2 in detergent; Harlan et al. 1994; cited from earlier work.

A further assay addresses T2, SH2 domain of Lck (Homo sapiens, UniProt P06239).
T2 construct: Control experiments performed with the SH2 domain of Lck; made in house
Description: Equilibrium gel filtration control with SH2 domain. Format: binding. To be noted: low salt; 50 mM MOPS pH 6.8, 100 mM NaCl.

The target of the next assay is T3, Dyn-PH (Homo sapiens, UniProt Q05193).
T3 construct: The PH domains from PLC-δ1, and dynamin, as well as the N-terminal PH domain of pleckstrin; made in house; host or cells: Escherichia coli (T7 system)
T3 sequence (Q05193 519-625 limits assumed): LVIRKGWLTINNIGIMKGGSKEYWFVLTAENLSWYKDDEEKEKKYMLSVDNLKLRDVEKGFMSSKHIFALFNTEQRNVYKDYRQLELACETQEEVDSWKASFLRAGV
As to the kind of experiment: Equilibrium gel filtration (Hummel and Dreyer) of PH domain binding to lipid vesicles. To be noted: PIP2-containing vesicles. Here is the method:
A 150×7.5 mm Superdex 75 column, attached to a Dionex HPLC system, was equilibrated with buffer containing PH domain at around 5 μM (depending upon the experiment). A suspension of vesicles that also contained 5 μM PH domain was then injected. In the absence of interaction between the PH domain and the vesicles, the resulting column profile (detected by absorbance at 280 nm) reflects only the lipid peak. However, if there is significant interaction, a trough is observed at a position corresponding to the elution position of the free PH domain, since the lipids have removed free PH domain from the column buffer. When such a trough was observed, in order to determine a KD for the interaction, a series of higher concentrations of PH domain were injected, all with constant lipid concentration. A plot of trough area against [PH] in the injected sample was linear, becoming positive when excess free protein was present in the injected sample (see FIG. 5B). This line was used to determine the point at which no trough was observed. […] Since [PH]total as well as [lipid]total in the injected sample are known, KD can be determined, as KD=([PH]free×[lipid]free)/[complex]. […]
We also utilized the equilibrium gel-filtration approach described by Hummel, J. P., and Dreyer, W. J., Biochim. […] If an interaction is observed, its KD can be determined as described in Experimental Procedures. […]

For assay [2], the target named is T4, PLCδ-PH (PH domain of rat PLC-δ1) (Rattus norvegicus, UniProt P10688).
T4 construct: initiator methionine (N); made in house; host or cells: Escherichia coli (pET11a, T7 system)
T4 sequence (P10688 20-136): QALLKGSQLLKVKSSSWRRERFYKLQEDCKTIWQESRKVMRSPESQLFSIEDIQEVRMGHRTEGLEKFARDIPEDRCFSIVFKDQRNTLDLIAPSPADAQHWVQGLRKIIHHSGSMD
As to the kind of experiment: Isothermal titration calorimetry of inositol polyphosphate / PIP2 vesicle binding to PLCδ-PH. To be noted: for Kd: read-out: KD. As to the method:
The resulting titration curve was fit using Omega software (Wiseman et al., 1989).
All experiments utilized the OMEGA instrument from MicroCal (Wiseman, T. et al., Anal. Biochem. 179, 131-137, 1989), in the laboratory of Prof. Julian Sturtevant at Yale. Titrations were performed at 25° C. in 50 mM MOPS, 100 mM NaCl, pH 6.8 or 100 mM NH4OAc at pH 6.8. […] For each titration, PH domain solution was dialyzed exhaustively against the buffer used for dilution of highly concentrated stocks of ligand. Heats for dilution of the ligand solutions were determined in separate titrations of ligand into buffer solution present in the cell.
Higher concentrations were employed for weaker binding events. […] Stoichiometry, binding constant (Kβ) and ΔH were all allowed to float in the fitting procedure.
A titration curve such as that to an equation describing a simple-binding reaction (Wiseman, T. et al., Anal. Biochem. 179, 131-137, 1989). From this fit, values for the binding constant, stoichiometry and ΔH for the binding reaction are ascertained. […] Ferris, C. D. et al, Nature, 342, 87-89, 1989.

A further assay addresses T5, PLCδ-PH (Rattus norvegicus, UniProt P10688).
T5 construct: initiator methionine (N); made in house; host or cells: Escherichia coli (pET11a, T7 system)
T5 sequence (P10688 20-136): T4 sequence (P10688 20-136)
Description: Spin-column competition assay for 3H-I(145)P3 binding to PLCδ-PH. As to the method: A spin-column based competition assay was employed to determine relative affinities of other inositol polyphosphates for PLCδ-PH. […] The sample (40 μl) was then applied to a Biogel P6 gel filtration spin-column. […] Each curve represents the mean of two or more experiments.
The sample was then applied to a pre-spun 1 ml spin-column containing Biogel P6 desalting medium. The spin-column was then centrifuged for 4 minutes at 900 g. Essentially all of the protein was determined to pass through the column under these conditions, and no significant counts were seen to pass through the column in the absence of protein. After spinning, all of the material that passed through the column was added to scintillation fluid for counting. Counts were normalized to those obtained in the absence of competitor, and plotted as fraction of maximal binding. […]
Values for which a precise number is given represent the mean of at least two experiments.

[3] abbreviates: ITC, PIP2 at 5% in DMPC vesicles.

Several values for one entry are separate records, joined by “and”; a condition that tells them apart may be missing. Equal values may be shown once. Entries after “also recorded” stand apart in the source; their conditions may differ. Read-outs that look alike come from different tables or passages of the source.

T2 sequence (P06239 127-224 limits assumed): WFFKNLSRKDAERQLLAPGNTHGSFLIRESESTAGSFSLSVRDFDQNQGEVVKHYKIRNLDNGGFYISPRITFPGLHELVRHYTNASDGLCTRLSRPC

As for “Phosphatidylinositol-(4,5)-bisphosphate [PIP2]”, the Kd was ~30 µM in assay [1]; 1 µM and 0.95 µM in assay [2] (setting [3]); 0.95 µM and 2.12 µM in assay [2] (individual titrations, 25° C, pH 6.8); ~0.4 µM at PLCδ-PH (PIP2: 5% in DMPC vesicles, assuming 50% available, read-out: KD from competition assay). The binding to vesicles entry on SH2 domain of Lck is recorded as “also binds”; on Dyn-PH, “no detectable binding”. The “PIP2 in the vesicle preparation available for PLCδ-PH binding (apparent stoichiometry)” value in assay [2] (setting [3]) amounted to 57%. Further, in assay [2] (PIP2 in vesicles), the “binding affinity in words” value is on record as “submicromolar affinities”. The ΔG in assay [2] (individual titrations, 25° C) was -8.22 kcal/M and -7.74 kcal/M. Besides, the ΔH in assay [2] (individual titrations, 25° C) was -13.6 ± 0.4 kcal/M and -17.4 ± 0.4 kcal/M. For the same substance, the ΔS in assay [2] (individual titrations, 25° C) is −18.1 cal · M^−1 · K^−1 and −32.4 cal · M^−1 · K^−1. For the same substance, the Stoichiometry n in assay [2] (individual titrations, 25° C, pH 6.8, quoted for IPn as the ligand, PIP2 in vesicles assuming 50% available) is 0.88 ± 0.02 and 0.87 ± 0.02. Also, the “competition for I(145)P3 binding by lipid vesicles” value at PLCδ-PH (lipid at 5% in DMPC vesicles or pure DMPC, assuming 50% of lipid on the surface) is given as “almost as effective as that seen with unlabelled I(145)P3; also recorded: as effectively as can GPIP2”. Besides, the “binding weaker than I(145)P3” value at PLCδ-PH (relative to I(145)P3 binding to PLCδ-PH) is listed as “two-fold weaker”.
